SMILES strings stand for the structures. pEC50: −log10 of the molar value.

Assay [1] concerns the target T1, human GR (Homo sapiens, UniProt P04150).
T1 sequence (P04150 1-777): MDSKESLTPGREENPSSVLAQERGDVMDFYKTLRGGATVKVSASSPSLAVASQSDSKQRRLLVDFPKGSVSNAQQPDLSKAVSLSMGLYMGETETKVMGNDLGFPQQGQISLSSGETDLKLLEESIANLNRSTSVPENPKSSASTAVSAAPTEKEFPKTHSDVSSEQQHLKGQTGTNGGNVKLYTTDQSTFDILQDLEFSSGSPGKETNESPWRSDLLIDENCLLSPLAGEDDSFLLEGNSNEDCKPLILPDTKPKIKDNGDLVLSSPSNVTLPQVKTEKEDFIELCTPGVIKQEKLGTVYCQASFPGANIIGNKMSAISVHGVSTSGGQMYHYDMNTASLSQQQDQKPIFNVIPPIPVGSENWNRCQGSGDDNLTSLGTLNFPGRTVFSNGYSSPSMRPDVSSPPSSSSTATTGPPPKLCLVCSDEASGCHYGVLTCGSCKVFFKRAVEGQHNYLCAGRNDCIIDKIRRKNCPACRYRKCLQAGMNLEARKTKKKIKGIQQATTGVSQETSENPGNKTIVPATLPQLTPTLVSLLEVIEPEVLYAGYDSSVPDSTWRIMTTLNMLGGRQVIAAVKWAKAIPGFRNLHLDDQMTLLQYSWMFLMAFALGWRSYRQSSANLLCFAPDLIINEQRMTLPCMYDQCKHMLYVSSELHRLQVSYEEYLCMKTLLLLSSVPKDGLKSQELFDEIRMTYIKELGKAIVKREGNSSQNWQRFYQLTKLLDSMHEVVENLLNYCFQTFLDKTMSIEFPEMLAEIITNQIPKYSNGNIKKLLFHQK
Briefly: Trans-Activation Modulation of Glucocorticoid Receptor (GRAMMER), MMTV-LUC reporter, agonist mode. In kind it is cell-based. Details: endogenous in cells. The following applies: for pEC50: inflection point, read-out: Transactivation A549 Cells GRAMMER IP; for Emax: A549, A549 cells, read-out: Transactivation A549 Cells GRAMMER Emax. The method in brief: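 Readout is luciferase from a modified MMTV LTR promoter after 24 h compound exposure alongside 10 nM dexamethasone (100% activity reference), DMSO ≤1%.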

Assay [2] concerns the target T1, human GR. Briefly: Transrepression Assay (GITAR), TNFα-β-lactamase reporter in U937 cells. Details: U937 cells contain an endogenous glucocorticoid receptor (GR); endogenous in cells; host or cells: U937 cells stably transfected with the TNF-alpha promoter/beta-lactamase reporter. The settings on record: for GITAR > GRAMM % SEP: GITAR Emax minus GRAMMER Emax; for pEC50: inflection point, read-out: Transrepression U937 Cells GITAR IP. In kind it is cell-based. The method in brief:
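Repression normalised to 100 nM dexamethasone (100%), measured with CCF2-AM β-lactamase substrate after 70–90 min at room temperature. Stably transfected U937 cells were exposed to compound 30–45 min, then to PMA (5 ng/ml final) plus LPS (100 ng/ml final) overnight (~18 hr), 37° C.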

Setting [3] is: U-937, U937 cells, maximum activity, read-out: Transrepression U937 Cells GITAR Emax.
The mark [4] stands for this setting: U-937, activity repressed by 100 nM dexamethasone alone set as 100%, read-out: maximal activity in the transrepression (GITAR) assay.

As for `C[C@]12Cc3cnn(-c4ccc(F)cc4)c3C=C1CC[C@@H]2CN(CCc1ccccn1)S(=O)(=O)Cc1cccnc1` [Example 1, N-{[(4αR,5S)-1-(4-Fluorophenyl)-4α-methyl-1,4,4α,5,6,7-hexahydrocyclopenta[f]indazol-5-yl]methyl}-1-pyridin-3-yl-N-(2-pyridin-2-ylethyl)methanesulfonamide], the pEC50 at human GR [1] (A549 cells) is 6.46; at human GR [2] (U937 cells) it was 6.39. On human GR [1] (A549 cells, maximum activity), the “Transactivation A549 Cells GRAMMER Emax” value is recorded as 31.6%. Moreover, the “GITAR > GRAMM % SEP” value on human GR [2] is 41.9%. The “Transrepression U937 Cells GITAR Emax” value at human GR [2] (U937 cells, maximum activity) was 73.5%.
As to `C[C@]12Cc3cnn(-c4ccc(F)cc4)c3C=C1CC[C@@H]2CN(CC1CC1)S(=O)(=O)c1ccccc1F` [Example 2, N-(cyclopropylmethyl)-2-fluoro-N-{[(4αR,5S)-1-(4-fluorophenyl)-4α-methyl-1,4,4α,5,6,7-hexahydrocyclopenta[f]indazol-5-yl]methyl}benzenesulfonamide], the Emax at human GR [1] (maximum activity) was 50.5%; at human GR [2] (setting [3]), 73.3%; on human GR [2] (setting [4]) it was greater than 5%. Further, the pEC50 is 6.66 on human GR [1] (A549 cells) and 6.59 at human GR [2] (U937 cells).
For `C=CCN(C[C@H]1CCC2=Cc3c(cnn3-c3ccc(F)cc3)C[C@@]21C)S(=O)(=O)c1ccccc1F` [Example 3, N-allyl-2-fluoro-N-{[(4αR,5S)-1-(4-fluorophenyl)-4α-methyl-1,4,4α,5,6,7-hexahydrocyclopenta[f]indazol-5-yl]methyl}benzenesulfonamide] the same measures were 39.3%, 65.1%, greater than 5%, 6.43 and 6.39.
On to `C[C@]12Cc3cnn(-c4ccc(F)cc4)c3C=C1CC[C@@H]2CN(CC1CC1)S(=O)(=O)c1ccccc1C(F)(F)F` [Example 4, N-(cyclopropylmethyl)-N-{[(4αR,5S)-1-(4-fluorophenyl)-4α-methyl-1,4,4α,5,6,7-hexahydrocyclopenta[f]indazol-5-yl]methyl}-2-(trifluoromethyl)benzenesulfonamide], for which the Emax was 16.9% on human GR [1] (maximum activity), 53.1% on human GR [2] (setting [3]) and greater than 5% at human GR [2] (setting [4]). In addition, the pEC50 is 6.53 on human GR [1] (A549 cells) and 6.59 on human GR [2] (U937 cells). At human GR [2], the “GITAR > GRAMM % SEP” value was 36.2%.
Take `C[C@]12Cc3cnn(-c4ccc(F)cc4)c3C=C1CC[C@@H]2CN(CCO)S(=O)(=O)Cc1cccc(C(F)(F)F)c1` [Example 63, N-{[(4αR,5S)-1-(4-fluorophenyl)-4α-methyl-1,4,4α,5,6,7-hexahydrocyclopenta[f]indazol-5-yl]methyl}-N-(2-hydroxyethyl)-1-[3-(trifluoromethyl)phenyl]methanesulfonamide]: the Emax at human GR [1] (maximum activity) was 2.1%; at human GR [2] (setting [3]), 12%; at human GR [2] (setting [4]) it was greater than 5%. For the same compound, the results for the pEC50 on human GR [1] (A549 cells) and at human GR [2] (U937 cells) were 5.85 and 6.39, respectively. In addition, at human GR [2], the “GITAR > GRAMM % SEP” value turned out to be 9.9%.
As to `Cc1ccc(S(=O)(=O)N(CCO)C[C@H]2CCC3=Cc4c(cnn4-c4ccc(F)cc4)C[C@@]32C)s1` [Example 64, N-{[(4αR,5S)-1-(4-fluorophenyl)-4α-methyl-1,4,4α,5,6,7-hexahydrocyclopenta[f]indazol-5-yl]methyl}-N-(2-hydroxyethyl)-5-methylthiophene-2-sulfonamide], the Emax at human GR [1] (maximum activity) was 7.9%; at human GR [2] (setting [3]), 29%; on human GR [2] (setting [4]), greater than 5%. The pEC50 was 6.21 at human GR [1] (A549 cells) and 6.14 at human GR [2] (U937 cells). For the same compound, on human GR [2], the “GITAR > GRAMM % SEP” value is 21.1%.
Take `Cn1cc(S(=O)(=O)N(CCO)C[C@H]2CCC3=Cc4c(cnn4-c4ccc(F)cc4)C[C@@]32C)c(C(F)(F)F)n1` [Example 65, N-{[(4αR,5S)-1-(4-fluorophenyl)-4α-methyl-1,4,4α,5,6,7-hexahydrocyclopenta[f]indazol-5-yl]methyl}-N-(2-hydroxyethyl)-1-methyl-3-(trifluoromethyl)-1H-pyrazole-4-sulfonamide]: the values for the Emax at human GR [1] (maximum activity), on human GR [2] (setting [3]) and at human GR [2] (setting [4]) were 19.6%, 61% and greater than 5%, respectively. Also, the pEC50 is 5.96 on human GR [1] (A549 cells) and 6.05 at human GR [2] (U937 cells). Also, on human GR [2], the “GITAR > GRAMM % SEP” value is 41.3%.
As to `Cc1cc(S(=O)(=O)N(CCO)C[C@H]2CCC3=Cc4c(cnn4-c4ccc(F)cc4)C[C@@]32C)c(C)o1` [Example 66, N-{[(4αR,5S)-1-(4-fluorophenyl)-4α-methyl-1,4,4α,5,6,7-hexahydrocyclopenta[f]indazol-5-yl]methyl}-N-(2-hydroxyethyl)-2,5-dimethylfuran-3-sulfonamide], the Emax on human GR [1] (maximum activity) was 5.3%; on human GR [2] (setting [3]), 24.5%; at human GR [2] (setting [4]) it was greater than 5%. Moreover, the pEC50 is 5.93 on human GR [1] (A549 cells) and 6.03 on human GR [2] (U937 cells). Also, at human GR [2], the “GITAR > GRAMM % SEP” value worked out at 19.2%.
Take `Cn1nc(C(F)(F)F)cc1-c1ccc(S(=O)(=O)N(CCO)C[C@H]2CCC3=Cc4c(cnn4-c4ccc(F)cc4)C[C@@]32C)s1` [Example 67, N-{[(4αR,5S)-1-(4-fluorophenyl)-4α-methyl-1,4,4α,5,6,7-hexahydrocyclopenta[f]indazol-5-yl]methyl}-N-(2-hydroxyethyl)-5-[1-methyl-3-(trifluoromethyl)-1H-pyrazole-5-yl]thiophene-2-sulfonamide]: the Emax on human GR [1] (maximum activity) is 6.5%; on human GR [2] (setting [3]) it was 29.3%; on human GR [2] (setting [4]) it was greater than 5%. Further, the values for the pEC50 on human GR [1] (A549 cells) and on human GR [2] (U937 cells) were 6.35 and 5.69, respectively. At human GR [2], the “GITAR > GRAMM % SEP” value came out at 22.8%.
On to `C[C@]12Cc3cnn(-c4ccc(F)cc4)c3C=C1CC[C@@H]2CN(CCO)S(=O)(=O)c1cccc(C#N)c1` [Example 68, 3-cyano-N-{[(4αR,5S)-1-(4-fluorophenyl)-4α-methyl-1,4,4α,5,6,7-hexahydrocyclopenta[f]indazol-5-yl]methyl}-N-(2-hydroxyethyl)benezenesulfonamide], for which the Emax is 10% at human GR [1] (maximum activity), 32.9% at human GR [2] (setting [3]) and greater than 5% on human GR [2] (setting [4]). For the same compound, the pEC50 on human GR [1] (A549 cells) was 6.02; on human GR [2] (U937 cells), 6.12. The “GITAR > GRAMM % SEP” value at human GR [2] is recorded as 22.9%.
As to `C[C@]12Cc3cnn(-c4ccc(F)cc4)c3C=C1CC[C@@H]2CN(CCO)S(=O)(=O)c1ccc(Oc2cccc(Cl)c2C#N)cc1` [Example 69, 4-(3-chloro-2-cyanophenoxy)-N-{[(4αR,5S)-1-(4-fluorophenyl)-4α-methyl-1,4,4α,5,6,7-hexahydrocyclopenta[f]indazol-5-yl]methyl}-N-(2-hydroxyethyl)benzenesulfonamide], the results for the Emax at human GR [1] (maximum activity), on human GR [2] (setting [3]) and on human GR [2] (setting [4]) were 12.6%, 34.8% and greater than 5%, respectively. The pEC50 on human GR [1] (A549 cells) is 6.07; at human GR [2] (U937 cells), 5.60. Also, the “GITAR > GRAMM % SEP” value on human GR [2] was determined as 22.2%.
`C[C@]12Cc3cnn(-c4ccc(F)cc4)c3C=C1CC[C@@H]2CN(CCO)S(=O)(=O)c1ccccc1C(F)(F)F` [Example 70, N-{[(4αR,5S)-1-(4-fluorophenyl)-4α-methyl-1,4,4α,5,6,7-hexahydrocyclopenta[f]indazol-5-yl]methyl}-N-(2-hydroxyethyl)-2-(trifluoromethyl)benzenesulfonamide]: the Emax was 25.8% at human GR [1] (maximum activity), 40.8% at human GR [2] (setting [3]) and greater than 5% at human GR [2] (setting [4]). The pEC50 at human GR [1] (A549 cells) is 6.25; at human GR [2] (U937 cells), 6.00. In addition, the “GITAR > GRAMM % SEP” value at human GR [2] is reported as 15.1%.

Values taken from patent US8299048B2, “Hexahydrocyclopentyl[f]indazole sulfonamides and derivatives thereof as selective glucocorticoid receptor modulators” (Merck Sharp & Dohme Corp., priority 2008, dated 2012).
